Reference: US12227500B2, “Substituted pyrrolo[2,3-b]pyridines for suppressing toxic endoplasmic reticulum stress” (THE TRUSTEES OF COLUMBIA UNIVERSITY IN THE CITY OF NEW YORK, priority 2018, dated 2025)

Columns and labels:
Test in all cases: Radiolabeled ATP kinase assay, panel of 371 kinases (Table S6)
Type in all cases: biochemical
[1] = biological target: T1, panel of 371 human kinases (Homo sapiens, UniProt P25098); details: GRK2; 0.1 μM; 10 μM ATP; read-out: % Enzyme Activity (relative to DMSO controls)
T1 construct: purchased Reaction Biology Corp
T1 sequence (P25098 whole entry): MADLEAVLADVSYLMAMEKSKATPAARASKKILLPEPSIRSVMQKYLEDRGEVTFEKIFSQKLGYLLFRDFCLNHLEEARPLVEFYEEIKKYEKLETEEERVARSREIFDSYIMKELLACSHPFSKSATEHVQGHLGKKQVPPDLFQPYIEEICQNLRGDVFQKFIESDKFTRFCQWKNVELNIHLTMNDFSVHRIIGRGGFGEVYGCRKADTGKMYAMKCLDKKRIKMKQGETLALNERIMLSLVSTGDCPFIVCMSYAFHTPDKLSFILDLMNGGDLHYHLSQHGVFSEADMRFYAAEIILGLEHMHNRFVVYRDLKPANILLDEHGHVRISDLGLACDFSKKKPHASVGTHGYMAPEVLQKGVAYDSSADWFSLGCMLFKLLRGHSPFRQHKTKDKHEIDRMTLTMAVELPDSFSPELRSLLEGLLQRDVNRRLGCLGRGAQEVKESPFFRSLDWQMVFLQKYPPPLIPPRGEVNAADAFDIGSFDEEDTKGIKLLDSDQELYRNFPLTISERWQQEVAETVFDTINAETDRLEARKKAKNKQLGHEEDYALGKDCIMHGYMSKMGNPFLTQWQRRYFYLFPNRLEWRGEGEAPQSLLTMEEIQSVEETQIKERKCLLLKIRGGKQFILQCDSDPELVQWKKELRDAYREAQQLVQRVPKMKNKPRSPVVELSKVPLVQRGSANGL
Text: (§1) ; FIG. 38C). […]. Further targeted analyses, such as genetic knock-down or knock-out, may be warranted to parse the role of these additional kinases in our model of neurodegeneration.

[2] = biological target: T2, panel of 371 human kinases (Homo sapiens, UniProt Q9H2K8); details: TAOK3/JIK; 0.1 μM; 10 μM ATP; read-out: % Enzyme Activity (relative to DMSO controls)
T2 construct: purchased Reaction Biology Corp
T2 sequence (Q9H2K8 whole entry): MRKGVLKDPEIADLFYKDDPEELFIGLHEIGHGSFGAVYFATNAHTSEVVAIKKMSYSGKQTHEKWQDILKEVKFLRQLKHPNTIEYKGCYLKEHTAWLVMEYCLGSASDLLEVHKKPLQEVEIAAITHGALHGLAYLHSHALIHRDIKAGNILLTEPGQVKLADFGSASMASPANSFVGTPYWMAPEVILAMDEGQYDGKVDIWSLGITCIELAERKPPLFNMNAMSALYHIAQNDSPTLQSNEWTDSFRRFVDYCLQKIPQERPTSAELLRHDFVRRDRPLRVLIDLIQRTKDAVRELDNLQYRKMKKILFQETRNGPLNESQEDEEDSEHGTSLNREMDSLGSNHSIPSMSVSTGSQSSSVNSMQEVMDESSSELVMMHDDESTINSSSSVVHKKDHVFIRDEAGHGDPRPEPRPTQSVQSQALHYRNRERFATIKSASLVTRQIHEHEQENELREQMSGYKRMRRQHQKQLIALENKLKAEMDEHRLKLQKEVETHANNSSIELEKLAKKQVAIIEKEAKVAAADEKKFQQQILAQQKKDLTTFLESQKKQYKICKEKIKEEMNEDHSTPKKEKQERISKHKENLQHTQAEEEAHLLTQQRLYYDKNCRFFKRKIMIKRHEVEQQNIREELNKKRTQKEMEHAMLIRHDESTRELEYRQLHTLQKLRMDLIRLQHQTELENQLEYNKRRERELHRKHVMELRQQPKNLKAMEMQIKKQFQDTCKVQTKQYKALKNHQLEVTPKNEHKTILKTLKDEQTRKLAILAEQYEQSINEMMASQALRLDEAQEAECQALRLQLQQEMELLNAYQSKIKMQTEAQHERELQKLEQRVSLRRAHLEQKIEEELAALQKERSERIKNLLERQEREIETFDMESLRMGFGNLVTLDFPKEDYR
Text: as §1

[3] = biological target: T3, panel of 371 human kinases (Homo sapiens, UniProt P16591); details: FER; 0.1 μM; 10 μM ATP; read-out: % Enzyme Activity (relative to DMSO controls)
T3 construct: purchased Reaction Biology Corp
T3 sequence (P16591 whole entry): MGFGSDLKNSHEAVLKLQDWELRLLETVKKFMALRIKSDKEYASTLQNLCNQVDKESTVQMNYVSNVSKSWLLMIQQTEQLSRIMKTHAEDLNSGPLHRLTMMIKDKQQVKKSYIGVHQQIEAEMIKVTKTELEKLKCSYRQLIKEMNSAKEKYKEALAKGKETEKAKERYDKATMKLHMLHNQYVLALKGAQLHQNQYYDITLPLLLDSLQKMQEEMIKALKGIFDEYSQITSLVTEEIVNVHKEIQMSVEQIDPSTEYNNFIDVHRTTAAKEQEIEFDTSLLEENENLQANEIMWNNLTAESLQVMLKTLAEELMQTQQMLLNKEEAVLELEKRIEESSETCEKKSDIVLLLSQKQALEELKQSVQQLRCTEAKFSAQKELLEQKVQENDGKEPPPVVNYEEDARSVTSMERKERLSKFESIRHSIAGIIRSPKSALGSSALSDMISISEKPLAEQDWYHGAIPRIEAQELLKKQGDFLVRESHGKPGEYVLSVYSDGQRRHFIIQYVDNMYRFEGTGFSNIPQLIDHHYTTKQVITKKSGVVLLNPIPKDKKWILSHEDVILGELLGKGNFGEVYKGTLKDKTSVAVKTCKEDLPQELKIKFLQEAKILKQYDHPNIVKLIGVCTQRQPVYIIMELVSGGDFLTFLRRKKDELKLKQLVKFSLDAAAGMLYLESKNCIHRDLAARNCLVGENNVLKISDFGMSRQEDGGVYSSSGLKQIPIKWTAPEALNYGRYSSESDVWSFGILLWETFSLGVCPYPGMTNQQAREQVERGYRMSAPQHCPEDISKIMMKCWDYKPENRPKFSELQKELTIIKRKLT
Text: as §1

[4] = biological target: T4, panel of 371 human kinases (Homo sapiens, UniProt Q09013); details: DMPK; 0.1 μM; 10 μM ATP; read-out: % Enzyme Activity (relative to DMSO controls)
T4 construct: purchased Reaction Biology Corp
Text: as §1

[5] = biological target: T5, panel of 371 human kinases (Homo sapiens, UniProt Q12851); details: for remaining activity at 0.1 µM: GCK/MAP4K2, 10 μM ATP, read-out: % Enzyme Activity (relative to DMSO controls)
T5 construct: purchased Reaction Biology Corp
T5 sequence (Q12851 1-820): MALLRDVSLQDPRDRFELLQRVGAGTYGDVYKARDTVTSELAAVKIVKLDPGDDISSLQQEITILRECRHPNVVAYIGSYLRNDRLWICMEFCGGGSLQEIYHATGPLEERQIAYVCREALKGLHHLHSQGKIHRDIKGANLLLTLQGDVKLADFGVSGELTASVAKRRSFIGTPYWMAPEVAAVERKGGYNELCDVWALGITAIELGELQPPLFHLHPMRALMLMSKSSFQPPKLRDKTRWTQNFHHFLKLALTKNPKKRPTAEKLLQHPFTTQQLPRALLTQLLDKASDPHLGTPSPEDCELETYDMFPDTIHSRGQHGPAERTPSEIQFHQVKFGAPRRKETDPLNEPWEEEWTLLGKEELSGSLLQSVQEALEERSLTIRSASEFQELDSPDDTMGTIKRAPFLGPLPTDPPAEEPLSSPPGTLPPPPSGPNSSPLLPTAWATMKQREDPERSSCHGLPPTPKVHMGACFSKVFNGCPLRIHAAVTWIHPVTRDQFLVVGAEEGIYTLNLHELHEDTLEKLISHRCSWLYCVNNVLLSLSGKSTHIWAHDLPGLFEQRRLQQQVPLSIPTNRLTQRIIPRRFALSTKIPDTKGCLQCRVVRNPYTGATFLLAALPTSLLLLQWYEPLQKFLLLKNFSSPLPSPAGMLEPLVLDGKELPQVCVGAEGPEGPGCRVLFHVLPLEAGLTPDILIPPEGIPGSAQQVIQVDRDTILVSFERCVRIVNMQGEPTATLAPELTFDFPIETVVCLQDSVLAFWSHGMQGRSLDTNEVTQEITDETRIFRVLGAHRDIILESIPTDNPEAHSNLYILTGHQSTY
Text: as §1

[6] = biological target: T6, panel of 371 human kinases (Homo sapiens, UniProt Q9UBE8); details: NLK; 0.1 μM; 10 μM ATP; read-out: % Enzyme Activity (relative to DMSO controls)
T6 construct: purchased Reaction Biology Corp
T6 sequence (Q9UBE8 whole entry): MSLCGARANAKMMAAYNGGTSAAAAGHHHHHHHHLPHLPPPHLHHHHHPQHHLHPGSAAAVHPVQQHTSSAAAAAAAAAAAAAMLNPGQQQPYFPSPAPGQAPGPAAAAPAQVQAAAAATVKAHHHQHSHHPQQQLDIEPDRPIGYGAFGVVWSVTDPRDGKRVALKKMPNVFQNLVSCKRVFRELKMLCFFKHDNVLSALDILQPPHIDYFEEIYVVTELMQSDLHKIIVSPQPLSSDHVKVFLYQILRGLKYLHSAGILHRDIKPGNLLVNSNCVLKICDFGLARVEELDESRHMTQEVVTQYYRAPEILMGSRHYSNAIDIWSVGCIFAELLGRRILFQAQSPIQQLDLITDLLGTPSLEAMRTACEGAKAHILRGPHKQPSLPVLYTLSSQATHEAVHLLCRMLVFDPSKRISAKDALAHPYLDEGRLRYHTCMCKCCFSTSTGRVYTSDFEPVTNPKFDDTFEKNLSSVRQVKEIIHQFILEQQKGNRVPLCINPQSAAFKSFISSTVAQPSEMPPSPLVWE
Text: as §1

[7] = biological target: T7, panel of 371 human kinases (Homo sapiens, UniProt P16234); details: PDGFRa; 0.1 μM; 10 μM ATP; read-out: % Enzyme Activity (relative to DMSO controls)
T7 construct: purchased Reaction Biology Corp
Text: as §1

[8] = biological target: T8, panel of 371 human kinases (Homo sapiens, UniProt O75582); details: MSK1/RPS6KA5; 0.1 μM; 10 μM ATP; read-out: % Enzyme Activity (relative to DMSO controls)
T8 construct: purchased Reaction Biology Corp
T8 sequence (O75582 whole entry): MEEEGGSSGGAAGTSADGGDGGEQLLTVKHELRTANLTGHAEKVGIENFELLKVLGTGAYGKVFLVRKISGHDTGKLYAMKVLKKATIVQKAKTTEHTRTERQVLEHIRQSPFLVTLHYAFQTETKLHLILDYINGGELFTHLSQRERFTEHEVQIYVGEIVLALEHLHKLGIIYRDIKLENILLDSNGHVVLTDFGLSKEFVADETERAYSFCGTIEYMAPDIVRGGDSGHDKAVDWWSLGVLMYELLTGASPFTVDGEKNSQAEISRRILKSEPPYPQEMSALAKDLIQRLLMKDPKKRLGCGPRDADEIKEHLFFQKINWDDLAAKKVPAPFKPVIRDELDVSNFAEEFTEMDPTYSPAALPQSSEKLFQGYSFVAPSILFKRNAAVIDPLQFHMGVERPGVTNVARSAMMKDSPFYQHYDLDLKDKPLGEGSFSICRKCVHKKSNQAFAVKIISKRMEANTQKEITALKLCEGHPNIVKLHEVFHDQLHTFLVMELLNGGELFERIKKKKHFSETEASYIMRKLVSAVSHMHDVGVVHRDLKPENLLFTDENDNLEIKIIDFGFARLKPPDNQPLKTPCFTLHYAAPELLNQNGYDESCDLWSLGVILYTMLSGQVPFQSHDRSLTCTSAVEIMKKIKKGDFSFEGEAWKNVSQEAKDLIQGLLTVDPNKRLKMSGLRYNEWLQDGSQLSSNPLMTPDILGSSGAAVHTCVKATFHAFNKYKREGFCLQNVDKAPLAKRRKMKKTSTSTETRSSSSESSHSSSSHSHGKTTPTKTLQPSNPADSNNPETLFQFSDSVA
Text: as §1

[9] = biological target: T9, panel of 371 human kinases (Homo sapiens, UniProt P24723); details: PKCeta; 0.1 μM; 10 μM ATP; read-out: % Enzyme Activity (relative to DMSO controls)
T9 construct: purchased Reaction Biology Corp
Text: as §1

[10] = biological target: T10, panel of 371 human kinases (Homo sapiens, UniProt Q13882); details: BRK; 0.1 μM; 10 μM ATP; read-out: % Enzyme Activity (relative to DMSO controls)
T10 construct: purchased Reaction Biology Corp
Text: as §1

[11] = biological target: T11, panel of 371 human kinases (Homo sapiens, UniProt P49760); details: CLK2; 0.1 μM; 10 μM ATP; read-out: % Enzyme Activity (relative to DMSO controls)
T11 construct: purchased Reaction Biology Corp
T11 sequence (P49760 whole entry): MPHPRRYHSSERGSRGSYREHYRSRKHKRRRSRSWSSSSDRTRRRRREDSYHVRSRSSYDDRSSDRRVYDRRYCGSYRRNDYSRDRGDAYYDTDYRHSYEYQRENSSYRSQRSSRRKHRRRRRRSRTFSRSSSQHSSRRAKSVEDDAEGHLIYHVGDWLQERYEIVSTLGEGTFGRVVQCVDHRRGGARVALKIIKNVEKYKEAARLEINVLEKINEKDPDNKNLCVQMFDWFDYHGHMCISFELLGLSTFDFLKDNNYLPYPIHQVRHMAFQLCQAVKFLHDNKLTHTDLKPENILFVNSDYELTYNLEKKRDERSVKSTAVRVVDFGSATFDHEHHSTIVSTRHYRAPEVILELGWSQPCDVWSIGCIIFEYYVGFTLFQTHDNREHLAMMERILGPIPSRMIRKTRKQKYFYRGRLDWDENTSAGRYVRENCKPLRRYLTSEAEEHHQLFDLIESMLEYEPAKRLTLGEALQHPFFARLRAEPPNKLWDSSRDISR
Text: as §1

[12] = biological target: T12, panel of 371 human kinases (Homo sapiens, UniProt P05771); details: PKCb1; 0.1 μM; 10 μM ATP; read-out: % Enzyme Activity (relative to DMSO controls)
T12 construct: purchased Reaction Biology Corp
T12 sequence (P05771 whole entry): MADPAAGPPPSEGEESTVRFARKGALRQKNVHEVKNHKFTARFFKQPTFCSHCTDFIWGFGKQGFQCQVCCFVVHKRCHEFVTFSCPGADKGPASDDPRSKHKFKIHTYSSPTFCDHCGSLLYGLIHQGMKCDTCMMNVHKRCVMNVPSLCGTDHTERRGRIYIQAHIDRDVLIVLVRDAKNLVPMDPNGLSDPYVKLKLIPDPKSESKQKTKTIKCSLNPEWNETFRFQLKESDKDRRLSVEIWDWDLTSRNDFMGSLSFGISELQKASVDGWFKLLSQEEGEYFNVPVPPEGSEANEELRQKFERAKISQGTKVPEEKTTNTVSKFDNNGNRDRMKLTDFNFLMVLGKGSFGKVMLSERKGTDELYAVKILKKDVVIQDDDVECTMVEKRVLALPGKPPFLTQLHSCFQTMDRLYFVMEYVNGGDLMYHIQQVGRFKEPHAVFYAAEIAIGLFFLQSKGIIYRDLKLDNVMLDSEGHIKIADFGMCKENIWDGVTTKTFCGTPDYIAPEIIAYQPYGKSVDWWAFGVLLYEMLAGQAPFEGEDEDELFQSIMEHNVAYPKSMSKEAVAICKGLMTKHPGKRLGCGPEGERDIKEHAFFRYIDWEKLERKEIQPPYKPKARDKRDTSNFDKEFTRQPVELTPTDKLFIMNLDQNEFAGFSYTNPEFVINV
Text: as §1

Row | SMILES | remaining activity at 0.1 µM [1] [%] | remaining activity at 0.1 µM [2] [%] | remaining activity at 0.1 µM [3] [%] | remaining activity at 0.1 µM [4] [%] | remaining activity at 0.1 µM [5] [%] | remaining activity at 0.1 µM [6] [%] | remaining activity at 0.1 µM [7] [%] | remaining activity at 0.1 µM [8] [%] | remaining activity at 0.1 µM [9] [%] | remaining activity at 0.1 µM [10] [%] | remaining activity at 0.1 µM [11] [%] | remaining activity at 0.1 µM [12] [%] | fold change in GCK activity following 12k exposure relative to 1 ([5]; 0.025 μM) [fold]
1 | CN1CCN(Cc2ccc(-c3cnc4[nH]cc(-c5ccc6[nH]ccc6c5)c4c3)cc2)CC1 [Compound 1, 3-(1H-Indol-5-yl)-5-(4-((4-methylpiperazin-1-yl)methyl)phenyl)-1H-pyrrolo[2,3-b]pyridine, reference compound] | 94 | 87.3 | 94.8 | 96.6 | 63.6 | 101 | 86.9 | 101 | 103 | 86.4 | 48.2 | 78.3 | –
2 | OCCN1CCN(Cc2ccc(-c3cnc4[nH]cc(-c5cccc(Cl)c5)c4c3)cc2)CC1 [Compound 12k, 2-(4-(4-(3-(3-Chlorophenyl)-1H-pyrrolo[2,3-b]pyridin-5-yl)benzyl)piperazin-1-yl)ethan-1-ol] | 96.3 | 79.8 | 103 | 97.7 | 10.2 | 94.3 | 87.8 | 98.4 | 94.6 | 95 | 55.8 | 86.2 | 6.22
